Legend:
Assay type in all cases: in vivo
[1] = tested on: corn (Zea mays); assay: Test G Post-Emergence Protocol; conditions: Zea mays, post-emergence, 312 h; for plant injury at 15.625 g/ha: 15.625 g ai/ha, evaluated after 13 days (100=total damage to plant; 0=no damage to plant), read-out: Corn damage rating; for plant injury at 62.5 g/ha: 62.5 g ai/ha, read-out: Corn damage rating (100=total damage to plant; 0=no damage to plant); for plant injury at 62.5 g/ha / plant injury at 250 g/ha: evaluated after 13 days; for plant injury at 250 g/ha: 250 g ai/ha, read-out: damage to plant, Corn (100=total damage to plant; 0=no damage to plant)
Summary of the method: (§1)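 Sow in soil; grow 8 d (24/16 °C, 14 h light, 65% humidity); spray 15.625/62.5/250 g/ha in acetone:water 50:50 + 0.5% Tween 20; grow on, water twice daily; score damage 0–100 at 13 d.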

[2] = tested on: redroot pigweed (Amaranthus retroflexus); assay: Test G Post-Emergence Protocol; conditions: Amaranthus retroflexus, post-emergence, 312 h; for pest or weed control at 15.625 g/ha: 15.625 g ai/ha, evaluated after 13 days (100=total damage to plant; 0=no damage to plant), read-out: Pigweed, Redroot damage rating; for pest or weed control at 62.5 g/ha: 62.5 g ai/ha, read-out: Pigweed, Redroot damage rating (100=total damage to plant; 0=no damage to plant); for pest or weed control at 62.5 g/ha / pest or weed control at 250 g/ha: evaluated after 13 days; for pest or weed control at 250 g/ha: 250 g ai/ha, read-out: damage to plant, Pigweed, Redroot (100=total damage to plant; 0=no damage to plant)
Summary of the method: as §1

[3] = tested on: velvetleaf (Abutilon theophrasti); assay: Test G Post-Emergence Protocol; conditions: Abutilon theophrasti, post-emergence, 312 h; for pest or weed control at 15.625 g/ha: 15.625 g ai/ha, evaluated after 13 days (100=total damage to plant; 0=no damage to plant), read-out: Velvetleaf damage rating; for pest or weed control at 62.5 g/ha: 62.5 g ai/ha, read-out: Velvetleaf damage rating (100=total damage to plant; 0=no damage to plant); for pest or weed control at 62.5 g/ha / pest or weed control at 250 g/ha: evaluated after 13 days; for pest or weed control at 250 g/ha: 250 g ai/ha, read-out: damage to plant, Velvetleaf (100=total damage to plant; 0=no damage to plant)
Summary of the method: as §1

[4] = tested on: giant foxtail (Setaria faberi); assay: Test G Post-Emergence Protocol; conditions: Setaria faberi, post-emergence, 312 h; for pest or weed control at 15.625 g/ha: 15.625 g ai/ha, evaluated after 13 days (100=total damage to plant; 0=no damage to plant), read-out: Foxtail, Giant damage rating; for pest or weed control at 62.5 g/ha: 62.5 g ai/ha, read-out: Foxtail, Giant damage rating (100=total damage to plant; 0=no damage to plant); for pest or weed control at 62.5 g/ha / pest or weed control at 250 g/ha: evaluated after 13 days; for pest or weed control at 250 g/ha: 250 g ai/ha, read-out: damage to plant, Foxtail, Giant (100=total damage to plant; 0=no damage to plant)
Summary of the method: as §1

[5] = tested on: barnyardgrass (Echinochloa crus-galli); assay: Test G Post-Emergence Protocol; conditions: Echinochloa crus-galli, post-emergence, 312 h; for pest or weed control at 15.625 g/ha: 15.625 g ai/ha, evaluated after 13 days (100=total damage to plant; 0=no damage to plant), read-out: Barnyardgrass damage rating; for pest or weed control at 62.5 g/ha: 62.5 g ai/ha, read-out: Barnyardgrass damage rating (100=total damage to plant; 0=no damage to plant); for pest or weed control at 62.5 g/ha / pest or weed control at 250 g/ha: evaluated after 13 days; for pest or weed control at 250 g/ha: 250 g ai/ha, read-out: damage to plant, Barnyardgrass (100=total damage to plant; 0=no damage to plant)
Summary of the method: as §1

[6] = tested on: ivy-leaved morning glory (Ipomoea hederacea); assay: Test G Post-Emergence Protocol; conditions: Ipomoea, post-emergence, 312 h; for pest or weed control at 15.625 g/ha: 15.625 g ai/ha, evaluated after 13 days (100=total damage to plant; 0=no damage to plant), read-out: Morningglory, Ivy-leaved damage rating; for pest or weed control at 62.5 g/ha: 62.5 g ai/ha, read-out: Morningglory, Ivy-leaved damage rating (100=total damage to plant; 0=no damage to plant); for pest or weed control at 62.5 g/ha / pest or weed control at 250 g/ha: evaluated after 13 days; for pest or weed control at 250 g/ha: 250 g ai/ha, read-out: damage to plant, Morningglory, Ivy-leaved (100=total damage to plant; 0=no damage to plant)
Summary of the method: as §1

[7] = tested on: corn (Zea mays); assay: Test G Pre-Emergence Protocol; conditions: Zea mays, pre-emergence, 312 h, evaluated after 13 days; for plant injury at 15.625 g/ha: 15.625 g ai/ha; for plant injury at 15.625 g/ha / plant injury at 250 g/ha: read-out: Corn damage rating (100=total damage to plant; 0=no damage to plant); for plant injury at 62.5 g/ha: 62.5 g ai/ha, 100=total damage to plant, 0=no damage to plant, read-out: plant damage rating, Corn; for plant injury at 250 g/ha: 250 g ai/ha
Summary of the method: (§2)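 One day after sowing, pots are treated with a spray of test compound formulated in acetone/water 50:50 plus 0.5% Tween 20, giving 15.625, 62.5 or 250 g/ha. Evaluation on a 0–100 damage scale follows 13 days of glasshouse growth.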

[8] = tested on: redroot pigweed (Amaranthus retroflexus); assay: Test G Pre-Emergence Protocol; conditions: Amaranthus retroflexus, pre-emergence, 312 h, evaluated after 13 days; for pest or weed control at 15.625 g/ha: 15.625 g ai/ha; for pest or weed control at 15.625 g/ha / pest or weed control at 250 g/ha: read-out: Pigweed, Redroot damage rating (100=total damage to plant; 0=no damage to plant); for pest or weed control at 62.5 g/ha: 62.5 g ai/ha, 100=total damage to plant, 0=no damage to plant, read-out: plant damage rating, Pigweed, Redroot; for pest or weed control at 250 g/ha: 250 g ai/ha
Summary of the method: as §2

[9] = tested on: velvetleaf (Abutilon theophrasti); assay: Test G Pre-Emergence Protocol; conditions: Abutilon theophrasti, pre-emergence, 312 h, evaluated after 13 days; for pest or weed control at 15.625 g/ha: 15.625 g ai/ha; for pest or weed control at 15.625 g/ha / pest or weed control at 250 g/ha: read-out: Velvetleaf damage rating (100=total damage to plant; 0=no damage to plant); for pest or weed control at 62.5 g/ha: 62.5 g ai/ha, 100=total damage to plant, 0=no damage to plant, read-out: plant damage rating, Velvetleaf; for pest or weed control at 250 g/ha: 250 g ai/ha
Summary of the method: as §2

[10] = tested on: giant foxtail (Setaria faberi); assay: Test G Pre-Emergence Protocol; conditions: Setaria faberi, pre-emergence, 312 h, evaluated after 13 days; for pest or weed control at 15.625 g/ha: 15.625 g ai/ha; for pest or weed control at 15.625 g/ha / pest or weed control at 250 g/ha: read-out: Foxtail, Giant damage rating (100=total damage to plant; 0=no damage to plant); for pest or weed control at 62.5 g/ha: 62.5 g ai/ha, 100=total damage to plant, 0=no damage to plant, read-out: plant damage rating, Foxtail, Giant; for pest or weed control at 250 g/ha: 250 g ai/ha
Summary of the method: as §2

[11] = tested on: barnyardgrass (Echinochloa crus-galli); assay: Test G Pre-Emergence Protocol; conditions: Echinochloa crus-galli, pre-emergence, 312 h, evaluated after 13 days; for pest or weed control at 15.625 g/ha: 15.625 g ai/ha, read-out: Barnyard grass damage rating (100=total damage to plant; 0=no damage to plant); for pest or weed control at 62.5 g/ha: 62.5 g ai/ha, 100=total damage to plant, 0=no damage to plant, read-out: plant damage rating, Barnyardgrass; for pest or weed control at 250 g/ha: 250 g ai/ha, read-out: Barnyardgrass damage rating (100=total damage to plant; 0=no damage to plant)
Summary of the method: as §2

[12] = tested on: ivy-leaved morning glory (Ipomoea hederacea); assay: Test G Pre-Emergence Protocol; conditions: Ipomoea, pre-emergence, 312 h, evaluated after 13 days; for pest or weed control at 15.625 g/ha: 15.625 g ai/ha, read-out: Morning-glory, Ivy-leaved damage rating (100=total damage to plant; 0=no damage to plant); for pest or weed control at 62.5 g/ha: 62.5 g ai/ha, 100=total damage to plant, 0=no damage to plant, read-out: plant damage rating, Morningglory, Ivy-leaved; for pest or weed control at 250 g/ha: 250 g ai/ha, read-out: Morningglory, Ivy-leaved damage rating (100=total damage to plant; 0=no damage to plant)
Summary of the method: as §2

SMILES | plant injury at 15.625 g/ha [1] [%] | plant injury at 62.5 g/ha [1] [%] | plant injury at 250 g/ha [1] [%] | pest or weed control at 15.625 g/ha [2] [%] | pest or weed control at 62.5 g/ha [2] [%] | pest or weed control at 250 g/ha [2] [%] | pest or weed control at 15.625 g/ha [3] [%] | pest or weed control at 62.5 g/ha [3] [%] | pest or weed control at 250 g/ha [3] [%] | pest or weed control at 15.625 g/ha [4] [%] | pest or weed control at 62.5 g/ha [4] [%] | pest or weed control at 250 g/ha [4] [%] | pest or weed control at 15.625 g/ha [5] [%] | pest or weed control at 62.5 g/ha [5] [%] | pest or weed control at 250 g/ha [5] [%] | pest or weed control at 15.625 g/ha [6] [%] | pest or weed control at 62.5 g/ha [6] [%] | pest or weed control at 250 g/ha [6] [%] | plant injury at 15.625 g/ha [7] [%] | plant injury at 62.5 g/ha [7] [%] | further results
CN1C[C@H](c2ccc(C(F)(F)F)cc2)[C@@H](C(=O)Nc2ncc(F)cc2F)C1=O (racemic) [Compound 1452] | 0 | 0 | 0 | 0 | 0 | 10 | 0 | 0 | 10 | 0 | 0 | 10 | 0 | 0 | 0 | 0 | 10 | 10 | 0 | 0 | plant injury at 250 g/ha [7]: 0%; pest or weed control at 15.625 g/ha [8]: 0%; pest or weed control at 62.5 g/ha [8]: 0%; pest or weed control at 250 g/ha [8]: 0%; pest or weed control at 15.625 g/ha [9]: 0%; pest or weed control at 62.5 g/ha [9]: 0%; pest or weed control at 250 g/ha [9]: 30%; pest or weed control at 15.625 g/ha [10]: 0%; pest or weed control at 62.5 g/ha [10]: 0%; pest or weed control at 250 g/ha [10]: 60%; pest or weed control at 15.625 g/ha [11]: 0%; pest or weed control at 62.5 g/ha [11]: 0%; pest or weed control at 250 g/ha [11]: 50%; pest or weed control at 15.625 g/ha [12]: 0%; pest or weed control at 62.5 g/ha [12]: 0%; pest or weed control at 250 g/ha [12]: 0%
CN1C[C@H](c2ccc(C(F)F)cc2)[C@@H](C(=O)Nc2ccccc2F)C1=O (racemic) [Compound 1454] | 10 | 20 | 30 | 0 | 20 | 20 | 0 | 0 | 10 | 30 | 60 | 60 | 0 | 20 | 20 | 10 | 10 | 10 | 0 | 10 | plant injury at 250 g/ha [7]: 60%; pest or weed control at 15.625 g/ha [8]: 0%; pest or weed control at 62.5 g/ha [8]: 0%; pest or weed control at 250 g/ha [8]: 70%; pest or weed control at 15.625 g/ha [9]: 0%; pest or weed control at 62.5 g/ha [9]: 20%; pest or weed control at 250 g/ha [9]: 60%; pest or weed control at 15.625 g/ha [10]: 50%; pest or weed control at 62.5 g/ha [10]: 70%; pest or weed control at 250 g/ha [10]: 90%; pest or weed control at 15.625 g/ha [11]: 20%; pest or weed control at 62.5 g/ha [11]: 60%; pest or weed control at 250 g/ha [11]: 70%; pest or weed control at 15.625 g/ha [12]: 20%; pest or weed control at 62.5 g/ha [12]: 10%; pest or weed control at 250 g/ha [12]: 10%

— patent US12077503B2, “Substituted cyclic amides and their use as herbicides” (FMC CORPORATION, priority 2015, dated 2024)
